Test results taken from patent US7176281B2 (priority 2003, dated 2007).
Where a SMILES comes first, the peptide text is derived from it. Where no end group is shown, it is not given here.

Key:
[1] = target: snake venom PLA2 (crotoxin B) (Crotalus durissus terrificus, UniProt P0CAS2); assay: biochemical
[2] = target: T1, 100-kDa human recombinant cytosolic form of PLA2 (cPLA2) (Homo sapiens, UniProt P47712); assay: PLA2 inhibition, E. coli membrane assay, cPLA2; format: biochemical
T1 sequence (P47712 1-749): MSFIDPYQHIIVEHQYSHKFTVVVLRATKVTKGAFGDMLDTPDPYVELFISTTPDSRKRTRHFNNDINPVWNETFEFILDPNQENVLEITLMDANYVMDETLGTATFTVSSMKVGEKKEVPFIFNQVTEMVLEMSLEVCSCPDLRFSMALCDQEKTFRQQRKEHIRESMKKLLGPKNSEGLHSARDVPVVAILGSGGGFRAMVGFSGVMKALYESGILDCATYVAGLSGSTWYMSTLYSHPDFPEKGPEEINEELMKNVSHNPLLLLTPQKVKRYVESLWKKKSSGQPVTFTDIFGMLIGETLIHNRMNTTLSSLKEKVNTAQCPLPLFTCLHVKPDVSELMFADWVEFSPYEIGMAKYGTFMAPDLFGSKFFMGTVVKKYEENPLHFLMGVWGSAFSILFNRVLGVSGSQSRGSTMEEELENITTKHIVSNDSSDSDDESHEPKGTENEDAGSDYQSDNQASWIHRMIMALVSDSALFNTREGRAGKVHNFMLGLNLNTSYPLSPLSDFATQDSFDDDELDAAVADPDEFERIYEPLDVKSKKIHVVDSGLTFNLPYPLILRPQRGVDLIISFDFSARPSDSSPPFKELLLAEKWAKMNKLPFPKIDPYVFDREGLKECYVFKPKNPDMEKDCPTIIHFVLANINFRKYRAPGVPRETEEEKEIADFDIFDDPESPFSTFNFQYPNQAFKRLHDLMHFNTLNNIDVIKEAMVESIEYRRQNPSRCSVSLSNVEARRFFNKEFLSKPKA

sPLA2 [3] = assay: Inhibition of sPLA2 activity at fixed concentrations; format: biochemical
[4] = tested on: mammalian (human and rat) type IIA sPLA2; format: binding
[5] = tested on: Tg197 transgenic mice (chronic inflammatory polyarthritis); assay: Tg197 transgenic mouse arthritis model, experiment 2 (4 weeks, time course); format: in vivo
Experimental: In experiment 2, mice were divided into 6 groups (A–F), and were injected i.p with 3 weekly doses (150 μg peptide in 50 μL DMSO per dose) of either the test peptide P-NT.II or the control peptide with the scrambled sequence for 4 consecutive weeks. Tg197 mice in Group B (n=18) were further divided into 4 sub-groups (B1, B2, B3, B4). At the end of 1st week, four Tg197 mice from Group B (sub-group B1) were sacrificed and both hind legs taken for histological processing and scorings. The remaining Tg197 mice from the other sub-groups B were continued with 3 regular doses of injections per week, and four Tg197 mice from each sub-group B2 and B3, were sacrificed at the end of 2nd and 3rd weeks, respectively. At the end of 4th week, all remaining Tg197 mice ([…]) were sacrificed for collection of joint specimens.
Disease monitoring was done by gross observations based on body weight measurements and arthritis scoring, which were done twice weekly after treatment until all the animals were sacrificed at 5th week in experiment 1, or at 4th week in experiment 2. Arthritis score (AS) was recorded on both ankle joints, and average scores as shown below were taken: • 0=no arthritis (normal appearance and flexion); • 0.5=onset of arthritis (mild joint swelling); • 1.0=mild arthritis (joint distortion); • 1.5=as above+finger deformation, less strength on flexion; • […]=moderate arthritis (severe swelling, joint deformation, no strength on flexion); • 2.5=as above+finger deformation in paws; • 3.0=heavy arthritis (ankylosis detected on flexion and severely impaired movement).
For histopathological scoring, both hind legs were dissected and fixed in 10% formaldehyde overnight, decalcified in citrate-buffered formic acid for 3 days at 4° C., and processed for light microscopy (LM). • Histopathological score (HS) was evaluated as follows: • 0=no detectable pathology, • 1=hyperplasia of the synovial membrane and presence of polymorphonuclear infiltrates • 2=pannus and fibrous tissue formation and focal subchondrial bone erosion • 3=articular cartilage destruction and bone erosion • 4=articular cartilage destruction and extensive bone erosion.
Transmission electron microscopy (TEM): Ankle joints dissected from the left hind leg of each mouse were split open longitudinally through the midline between the tibia and the talus, prefixed overnight with 2.5% glutaraldehyde in phosphate buffer, pH 7.4 (PB) and rinsed with PB. After fixing with 1% osmium tetroxide in PB for 2 h, they were dehydrated in a graded series of ethanol and processed into Araldite. Semi-thin sections (1.0μ) were cut and stained with methylene blue to observe the orientation and for histopathological scorings under the light microscope. Ultra-thin sections (80–90 nm) were then cut with an ultramicrotome (Riechert-Jung Ultracut E), mounted on copper grids, counterstained with uranyl acetate and lead citrate, and evaluated under electron microscope (CM120 Biotwin, FEI Company).
Anti-inflammatory activity of the candidate peptide P-NT.II was examined as a new treatment option for modulating rheumatoid arthritis (RA) in a transgenic animal model. To evaluate the potential effectiveness of the peptide as prophylaxis against RA, two separate experiments were performed in 4 week-old transgenic (Tg197) mice and non-transgenic wild-type (wt) mice. These transgenic mice (Tg197) express human tumor necrosis factor (TNFα), a cytokine which has been implicated in the pathogenesis of human RA.

serum sPLA2 = assay: Serum sPLA2 levels in Tg197 mice, E. coli membrane assay; format: in vivo, mouse; conditions: 3–4 weeks post-treatment
Experimental: Serum of transgenic (Tg197) mice and non-transgenic wild type controls were measured for sPLA2 using an Escherichia coli (E. coli) membrane assay as described previously [Eur J Biochem 2002, 269:719–727]. In brief, [^3H] arachidonate-labeled E. coli membrane suspension (5.8 μCi/μmol, Perkin Elmer, USA) was used as substrate, and 25 mM CaCl2-100 mM Tris-HCl (pH 7.5) as assay buffer. The reaction mixture containing substrate (20 μl), and either purified human synovial sPLA2 standard (1–80 ng/ml, Cayman, USA) or serum (10 μl) in a final volume of 250 μl in assay buffer was incubated at 37° C. for 1 h, and the reaction terminated with 750 μl of chilled PBS containing 1% BSA. 500 μl aliquots of the supernatant were then taken to measure the amount of [^3H] arachidonate released from the E. coli membrane using liquid scintillation counting (Beckman LS 6500 Scintillation Counter). The amount of sPLA2 present in the serum was calculated from the standard curve, and is expressed as ng/ml±SEM.
FIG. 12 depicts time course of serum sPLA2 levels. Serum sPLA2 levels were measured with an E. coli membrane assay in blood samples collected from untreated, P-NT.I- and scrambled P-NT.II-treated Tg197 mice at weekly intervals. Values are the mean±SD (n=4/group). […]

sPLA2 [6] = conditions: known selective sPLA2 inhibitor; cited from earlier work
human recombinant cPLA2 = target: T2, human recombinant cPLA2 (Homo sapiens, UniProt P47712); format: binding
T2 sequence (P47712 1-749): T1 sequence (P47712 1-749)

β-bungarotoxin (Group I) = β-bungarotoxin (Group I) (Bungarus multicinctus, UniProt P00617)
crotoxin B (Group IIA) = crotoxin B (Group IIA) (Crotalus durissus terrificus, UniProt P0CAS2)
[7] = target: bee (Apis mellifera) venom PLA2 (Group III) (Apis mellifera, UniProt P00630)
[8] = target: T3, arthritis synovial fluid (human type IIA sPLA2) (Homo sapiens, UniProt P14555); assay: PLA2 inhibition, E. coli membrane assay, arthritis synovial fluid sPLA2; format: biochemical; conditions: read-out: IC50 (mean±SD; n=3)
T3 construct: arthritis synovial fluid (human type IIA sPLA2); from tissue; host or cells: human arthritis synovial fluid
T3 sequence (P14555 21-144): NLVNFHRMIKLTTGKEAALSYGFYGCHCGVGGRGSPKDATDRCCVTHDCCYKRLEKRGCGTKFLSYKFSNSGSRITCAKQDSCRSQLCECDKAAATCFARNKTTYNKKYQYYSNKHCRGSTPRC

[9] = target: T4, Group IIA purified human synovial sPLA2 (Homo sapiens, UniProt P14555); assay: In vitro inhibition of purified human synovial sPLA2, 3H-labelled E. coli membranes; format: biochemical; conditions: 3H-labelled E. coli membranes as substrate
T4 construct: purchased Cayman, USA
T4 sequence (P14555 21-144): T3 sequence (P14555 21-144)

[10] = target: T5, serum group IIA secretory phospholipase A2 (Homo sapiens, UniProt P14555); conditions: patients with severe sepsis; cited from earlier work
T5 construct: host or cells: patients' serum
T5 sequence (P14555 21-144): T3 sequence (P14555 21-144)

snake venom PLA2 (crotoxin B), sequence (P0CAS2 whole entry, looked up): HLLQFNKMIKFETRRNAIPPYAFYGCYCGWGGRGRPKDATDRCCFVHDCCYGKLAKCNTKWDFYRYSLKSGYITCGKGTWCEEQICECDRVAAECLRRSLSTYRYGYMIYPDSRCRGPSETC

## CC[C@H](C)[C@H](NC(=O)[C@H](CC(=O)O)NC(=O)[C@@H](NC(=O)[C@H](CCCNC(=N)N)NC(=O)[C@H](CCCNC(=N)N)NC(=O)[C@@H](N)Cc1ccc(O)cc1)C(C)C)C(=O)NCC(=O)N[C@@H](CC(C)C)C(=O)N[C@@H](CCCNC(=N)N)C(=O)N[C@H](C(=O)N[C@@H](Cc1c[nH]c2ccccc12)C(=O)N[C@@H](Cc1c[nH]cn1)C(=O)N[C@@H](CC(=O)O)C(=O)N[C@@H](CC(C)C)C(=O)NCC(=O)N[C@H](C(=O)NCC(=O)O)C(C)C)C(C)C [Scrambled P-NT.II, reference compound] (H-YRRVDIGLRVWHDLGVG-OH; N-terminus and C-terminus assumed)
[1]; IC50
  IC50: > 250 µM
[2]
  inhibition of cPLA2: failed to inhibit
sPLA2 [3]
  inhibition of sPLA2: failed to inhibit
[4]
  competition with labeled P-NT.II for binding to type IIA sPLA2: failed to block
[5]; 1–4 weeks post-treatment
  ultrastructural features of the articular chondrocytes (TEM): more or less similar to those described for untreated Tg197 mice
[5]; 4 wk treatment
  % of total at indicated HS scores, HS 2: 16.7%
  % of total at indicated HS scores, HS 3: 83.3%
  % of total at indicated HS scores, HS 4: 0%
  Mean HS ± SEM: 3.25 ± 0.17
Serum sPLA2
  circulating sPLA2 compared with untreated mice: not significantly different

## CC(=O)O[C@@H]1C[C@@H]2[C@@]3(C)CCCC(C)(C)[C@@H]3CC[C@@]2(C)[C@@H]2CC=C(C=O)[C@H](C=O)[C@@]12C [12-epi-scalaradial]
sPLA2 [3]; 10 μM
  inhibition of sPLA2 activity: 75%
sPLA2 [3]; 20 μM
  inhibition of sPLA2 activity: 95%
sPLA2 [6]
  IC50: 5.4 µM

## biotinylated-P-NT.II: P-NT.II labeled with biotin, 0.18 mol biotin bound to 1 mol of P-NT.II (LGRVDIHVWDGVYIRGR; also: labeled with biotin, 0.18 mol biotin per mol peptide, site not given here)
Human recombinant cPLA2
  ELISA reaction: reacted positively
  binding to cPLA2 relative to sPLA2s: relatively much weaker
β-bungarotoxin (Group I)
  ELISA reaction: reacted positively
Crotoxin B (Group IIA)
  ELISA reaction: reacted positively
[7]
  ELISA reaction: reacted positively

## CC[C@H](C)[C@H](NC(=O)[C@H](Cc1ccc(O)cc1)NC(=O)[C@@H](NC(=O)CNC(=O)[C@H](CC(=O)O)NC(=O)[C@H](Cc1c[nH]c2ccccc12)NC(=O)[C@@H](NC(=O)[C@H](Cc1cnc[nH]1)NC(=O)[C@@H](NC(=O)[C@H](CC(=O)O)NC(=O)[C@@H](NC(=O)[C@H](CCCNC(=N)N)NC(=O)CNC(=O)[C@@H](N)CC(C)C)C(C)C)[C@@H](C)CC)C(C)C)C(C)C)C(=O)N[C@@H](CCCNC(=N)N)C(=O)NCC(=O)N[C@@H](CCCNC(=N)N)C(=O)O [P-NT.II] (H-LGRVDIHVWDGVYIRGR-OH)
[1]; IC50 (mean±SD; n=3)
  IC50: 4.91 ± 2.47 µM
[1]; IC50 ranging
  IC50: 3.9 to 4.9 µM
[8]
  IC50: 3.91 ± 1.67 µM
[2]; human recombinant cPLA2, read-out: IC50 (mean±SD; n=3)
  IC50: 23.9 ± 2.39 µM
[9]
  IC50: 5.3 µM

## CCc1c(C(=O)C(N)=O)c2c(OCC(=O)O)cccc2n1Cc1ccccc1 [LY315920]
[10]
  serum group IIA secretory phospholipase A2 enzyme activity: inhibit
